Among the data in ChEMBL document CHEMBL1150860, “Cox-2 inhibitory effects of naturally occurring and modified fatty acids” (J Nat Prod, 2001) are IC50 and Ratio IC50 values, retold here.

Test [1] deals with T1, Prostaglandin G/H synthase 2 (Ovis aries, UniProt P79208).
T1 sequence (P79208 whole entry): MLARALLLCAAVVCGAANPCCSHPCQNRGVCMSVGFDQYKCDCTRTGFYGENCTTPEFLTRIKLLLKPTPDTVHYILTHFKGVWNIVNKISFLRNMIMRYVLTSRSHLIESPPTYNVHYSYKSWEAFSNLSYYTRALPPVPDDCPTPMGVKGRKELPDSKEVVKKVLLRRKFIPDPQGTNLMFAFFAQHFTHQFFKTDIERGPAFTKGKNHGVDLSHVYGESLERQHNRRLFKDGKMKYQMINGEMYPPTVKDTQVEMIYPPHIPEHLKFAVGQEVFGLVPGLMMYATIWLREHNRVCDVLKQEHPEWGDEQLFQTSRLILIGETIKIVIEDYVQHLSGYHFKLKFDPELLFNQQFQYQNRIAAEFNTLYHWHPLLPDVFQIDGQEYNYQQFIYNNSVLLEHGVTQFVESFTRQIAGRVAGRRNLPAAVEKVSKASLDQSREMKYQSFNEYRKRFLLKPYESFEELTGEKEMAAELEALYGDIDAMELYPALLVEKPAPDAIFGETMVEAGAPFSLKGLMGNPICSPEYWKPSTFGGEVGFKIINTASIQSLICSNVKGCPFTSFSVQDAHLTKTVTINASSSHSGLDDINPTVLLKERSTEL
The test is described as follows: Inhibition of sheep COX2-mediated prostaglandin biosynthesis using [1-14C]arachidonic acid.

The target of test [2] is T2, Prostaglandin G/H synthase 1 (Bos taurus, UniProt O62664).
T2 sequence (O62664 whole entry): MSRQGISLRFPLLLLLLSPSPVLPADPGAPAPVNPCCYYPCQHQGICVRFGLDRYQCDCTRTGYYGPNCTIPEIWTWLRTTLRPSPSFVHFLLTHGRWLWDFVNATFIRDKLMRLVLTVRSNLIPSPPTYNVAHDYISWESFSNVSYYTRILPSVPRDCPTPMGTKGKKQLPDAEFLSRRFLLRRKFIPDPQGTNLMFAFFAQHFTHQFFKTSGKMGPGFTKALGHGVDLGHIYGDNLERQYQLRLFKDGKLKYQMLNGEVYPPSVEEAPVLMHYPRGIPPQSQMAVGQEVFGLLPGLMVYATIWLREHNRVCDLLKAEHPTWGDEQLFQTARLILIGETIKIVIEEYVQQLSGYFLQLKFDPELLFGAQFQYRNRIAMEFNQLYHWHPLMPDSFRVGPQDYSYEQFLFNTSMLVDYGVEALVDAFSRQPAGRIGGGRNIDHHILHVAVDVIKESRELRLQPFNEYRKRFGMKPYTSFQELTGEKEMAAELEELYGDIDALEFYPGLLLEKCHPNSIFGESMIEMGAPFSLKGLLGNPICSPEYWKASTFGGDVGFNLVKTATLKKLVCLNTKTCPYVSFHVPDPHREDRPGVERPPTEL
The test is described as follows: Inhibition of bovine COX1-mediated prostaglandin biosynthesis using [1-14C]arachidonic acid.

Test [3] can be described thus: Selectivity ratio for IC50 for sheep COX2 to IC50 for […].

Where only a bound is given, the exact number is not on record here.

By IC50 is commonly meant the concentration at which inhibition is half-maximal. With `CC/C=C\C/C=C\C/C=C\C/C=C\C/C=C\C/C=C\CCC(=O)O` [DOCONEXENT], the IC50 worked out at 9.8 µM in test [1] and 15 µM in test [2]. For the same compound, in test [3], the Ratio IC50 worked out at 0.7.
For `CC/C=C\C/C=C\C/C=C\C/C=C\CCSCCCC(=O)O`, in that order: 3.9 µM, 26 µM and 0.2.
The matching figures for `CC/C=C\C/C=C\C/C=C\C/C=C\CCSCC(=O)O`: 160 µM, 84 µM and 1.9.
As to `CCCCCCCCCCCCCCC(=O)O` [PENTADECANOIC ACID], the IC50 in test [1] and in test [2] was > 500 µM in each case.
In the case of `CCCCCCCCCCCCCCCCCC(=O)O` [STEARIC ACID], the IC50 in test [1] and in test [2] was > 500 µM in each case.
For the compound `CCCCCCCCCCCCCC(=O)O` [MYRISTIC ACID], the IC50 in test [1] and in test [2] was > 500 µM in each case.
On to `CCCCC/C=C\C/C=C\CCCCCCCC(=O)O` [LINOLEIC ACID], for which the IC50 in test [1] amounted to 94 µM; in test [2], 170 µM. Besides, the Ratio IC50 in test [3] was 0.6.
With `CCCCCCCCCCCCCCCC(=O)O` [PALMITIC ACID], the IC50 in test [1] and in test [2] was > 500 µM throughout.
Turning to `CC/C=C\C/C=C\C/C=C\CCCCCCCC(=O)O` [LINOLENIC ACID], the IC50 in test [1] was 12 µM; in test [2], 93 µM. Also, the Ratio IC50 in test [3] came out at 0.1.
Turning to `CCCCCCCC/C=C\CCCCCCCC(=O)O` [OLEIC ACID], the IC50 in test [1] and in test [2] was > 500 µM in each case.
With `CC/C=C\C/C=C\C/C=C\C/C=C\C/C=C\CCCC(=O)O` [ICOSAPENT], the concentration for half-maximal inhibition (IC50) in test [1] is 7.1 µM; in test [2] it was 13 µM. Besides, the Ratio IC50 in test [3] amounted to 0.5.
On to `CC/C=C\C/C=C\C/C=C\CC/C=C/COCC(=O)O`, for which the IC50 in test [1] and in test [2] was > 500 µM in each case.
Turning to `CC/C=C\C/C=C\C/C=C\C/C=C\CC/C=C/COCC(=O)O`, the IC50 in test [1] came out at 180 µM; in test [2], 50 µM. In addition, the Ratio IC50 in test [3] is 3.6.
For `CC/C=C\C/C=C\C/C=C\C/C=C\CCOCC(=O)O`, the IC50 in test [1] and in test [2] was > 500 µM each time.
Consider `CC/C=C\C/C=C\C/C=C\CC/C=C/CSCCCC(=O)O`, for which the IC50 was found to be 120 µM in test [1] and 81 µM in test [2]. Further, the Ratio IC50 in test [3] amounted to 1.4.
